The values that follow are results of earlier work, collected in PMC3538728 (PLoS ONE, 2013).

What is called IC50 is the concentration at which inhibition is half-maximal.

The conditions of data set [1]: cited from earlier work; for outcome in phase III clinical trials: relative to placebo.
Details of data set [2]: method as in PMID 19527190. The settings on record: early in preclinical studies; cited from earlier work.
A further data set concerns the target γ-secretase. The arrangement: method as in PMID 19694467, PMID 21141968, PMID 19402777, PMID 22323718, PMID 22798753. The settings on record: cited from earlier work.

SMILES strings stand for the structures. Read-outs that look alike come from different tables or passages of the source.

With `NC(=O)[C@@H](CCC(F)(F)F)N(Cc1ccc(-c2ncon2)cc1F)S(=O)(=O)c1ccc(Cl)cc1` [avagacestat], the “outcome in phase II clinical studies” value in data set [1] (phase II) is given as “Dose dependent cognitive decline”.

With `C[C@H](NC(=O)[C@@H](O)c1cc(F)cc(F)c1)C(=O)N[C@@H]1C(=O)N(C)c2ccccc2-c2ccccc21` [LY-411,575, N2-[(2S)-2-(3,5-difluorophenyl)-2-hydroxyethanoyl]-N1-[(7S)-5-methyl-6-oxo-6,7-di hydro-5H-dibenzo[b,d]azepin-7-yl]-L-alaninamide], the “toxicity in preclinical studies” value in data set [2] is “toxic side-effects”.

On to `CC(C)[C@H](O)C(=O)N[C@@H](C)C(=O)N[C@@H]1C(=O)N(C)CCc2ccccc21` [semagacestat], for which the IC50 at γ-secretase was approximately 20 nM. In addition, the “outcome in phase III clinical trials” value is “irreversibly advance cognitive decline” in data set [1]; “toxic side-effects and irreversible cognitive decline” in data set [1] (listed as Semagacestat). In data set [1] (preclinical studies and short phase I and phase II clinical trials), the tolerance entry is “good tolerance”.
